Counter-ions that a name gives are not always drawn.
Columns and labels:
human RORγt LBD = target: T1, human RORγt LBD (Homo sapiens, UniProt P51449); experiment: RORγt reporter assay (GAL4-RORγt LBD luciferase in HEK293T cells); format: cell-based; details: for IC50: HEK293T cells, 24 hours compound treatment; for inhibition at 6 µM: HEK-293T, read-out: RORγt reporter Assay, % inhibition @ 6 μM, HEK293T cells, 6 μM compound
T1 construct: expressed in transfected cells
T1 sequence (P51449 258-518): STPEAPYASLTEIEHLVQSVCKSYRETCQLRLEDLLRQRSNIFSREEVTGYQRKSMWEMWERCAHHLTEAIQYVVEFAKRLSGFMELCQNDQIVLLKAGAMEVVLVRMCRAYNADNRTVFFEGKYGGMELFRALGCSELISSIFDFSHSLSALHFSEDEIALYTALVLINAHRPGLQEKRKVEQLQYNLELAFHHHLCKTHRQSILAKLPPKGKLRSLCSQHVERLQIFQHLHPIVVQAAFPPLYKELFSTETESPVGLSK
Outline: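 HEK293T cells transiently co-transfected with pBIND (GAL4 DBD fused to wild-type human RORγt LBD, plus SV40-driven renilla luciferase) and pGL4.31 GAL4-responsive firefly luciferase reporter. Plated in phenol-red-free DMEM with 5% lipid-reduced FCS and treated with compound for 24 h. Firefly/renilla luminescence ratio plotted against compound concentration.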

[1] = tested on: IL-17 production by CD4 T cells; experiment: Human Th17 assay (IL-17 production by CD4 T cells under Th17 differentiation conditions); format: cell-based; details: Homo sapiens, CD4+ T, 72 h, IL-17 in supernatant after 3 days
Outline: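 Primary CD4+ T cells from healthy-donor PBMC, preincubated 1 h with titrated compound (0.2% DMSO), then activated with anti-CD3/CD28 beads plus anti-IL4, anti-IFNγ, IL1β, IL23, IL6, TGFβ and IL2.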

[2] = target: T2, human RORγt ligand binding domain (RORγt LBD) (Homo sapiens, UniProt P51449); experiment: RORγt ThermoFluor assay (thermal shift, ligand binding affinity); details: estimated from concentration response of thermal shift
T2 construct: His-tag (N); TurboTEV protease cleavage site (ENLYFQG) (N); made in house; host or cells: E. coli (pHIS1, modified pET vector)
T2 sequence (P51449 with tags, fused parts or gaps): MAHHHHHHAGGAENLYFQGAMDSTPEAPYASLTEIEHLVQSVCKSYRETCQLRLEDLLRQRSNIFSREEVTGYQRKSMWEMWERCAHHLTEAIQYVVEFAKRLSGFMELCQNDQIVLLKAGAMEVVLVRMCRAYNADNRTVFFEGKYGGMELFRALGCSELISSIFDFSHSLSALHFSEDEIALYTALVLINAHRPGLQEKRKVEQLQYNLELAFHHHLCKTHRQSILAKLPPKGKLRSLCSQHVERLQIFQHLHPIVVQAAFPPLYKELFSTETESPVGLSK
Outline: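 Thermal shift of 0.065 mg/mL RORγt with 60 μM 1,8-ANS in 100 mM Hepes pH 7.0, 10 mM NaCl, 2.5 mM GSH, 0.002% Tween-20. Compounds in 1:2 series from 10 mM DMSO stock. Dye fluorescence (500 nm emission) tracked versus temperature; ΔTm used to derive KD.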

SMILES | IC50 (human RORγt LBD) | inhibition at 6 µM (human RORγt LBD) | IC50 [1] | Kd [2]
CCN(CC)c1nc2ccc(C(O)(c3ccncc3)c3cncn3C)cc2c(C)c1-c1ccccc1 (stereo not shown) [Example 102, [2-(Diethylamino)-4-methyl-3-phenylquinolin-6-yl](1-methyl-1H-imidazol-5-yl)pyridin-4-ylmethanol•TFA] | 0.14 µM | 104% | 0.15 µM | 0.041 µM
N#Cc1ccc(C(O)(c2cccc(Cl)c2)c2ccc3nc(C#N)c(-c4ccccc4)c(C#N)c3c2)cn1 (stereo not shown) [Example 104, 6-[(3-Chlorophenyl)(6-cyanopyridin-3-yl)hydroxymethyl]-3-phenylquinoline-2,4-dicarbonitrile•TFA] | 0.039 µM | 100% | 0.043 µM | 0.03 µM
CCN(CC)c1nc2ccc(C(O)(c3ccncc3)c3cncn3C)cc2c(OC)c1-c1ccccc1 (stereo not shown) [Example 105, [2-(Diethylamino)-4-methoxy-3-phenylquinolin-6-yl](1-methyl-1H-imidazol-5-yl)pyridin-4-ylmethanol•TFA] | 0.15 µM | 101% | 0.19 µM | 0.039 µM
COc1c(-c2ccccc2)c(N(C)C)nc2ccc(C(O)(c3ccncc3)c3cncn3C)cc12 (stereo not shown) [Example 107, [2-(Dimethylamino)-4-methoxy-3-phenylquinolin-6-yl](1-methyl-1H-imidazol-5-yl)pyridin-4-ylmethanol•TFA] | 0.059 µM | 101% | 0.039 µM | 0.065 µM
N#Cc1nc2ccc(C(O)(c3ccc(C(N)=O)nc3)c3cccc(Cl)c3)cc2c(C#N)c1-c1ccccc1 (stereo not shown) [Example 112, 5-[(3-Chlorophenyl)(2,4-dicyano-3-phenylquinolin-6-yl)hydroxymethyl]pyridine-2-carboxamide•TFA] | 0.38 µM | 100% | 0.48 µM | 0.12 µM
CCN(CC)c1nc2ccc(C(O)(c3cccnc3)c3cccc(Cl)c3)cc2c(C#N)c1-c1ccccc1 (stereo not shown) [Example 113, 6-[(3-Chlorophenyl)(hydroxy)pyridin-3-ylmethyl]-2-(diethylamino)-3-phenylquinoline-4-carbonitrile•TFA] | 0.086 µM | 101% | 0.25 µM | 1.8 µM
Cn1cncc1C(O)(c1cncnc1)c1ccc2nc(Cl)c(-c3ccccc3)c(Cl)c2c1 (stereo not shown) [Example 120, (2,4-Dichloro-3-phenylquinolin-6-yl)(1-methyl-1H-imidazol-5-yl)(pyrimidin-5-yl)methanol] | 0.17 µM | 98% | 0.4 µM | 0.13 µM
Cn1cncc1C(O)(c1ccc2nc(Cl)c(-c3ccccc3)c(Cl)c2c1)c1cnccn1 (stereo not shown) [Example 122, (2,4-Dichloro-3-phenylquinolin-6-yl)(1-methyl-1H-imidazol-5-yl)(pyrazin-2-yl)methanol] | 0.47 µM | 91% | 0.5 µM | 0.25 µM
OC(c1ccc(Cl)cc1)(c1cncnc1)c1ccc2nc(Cl)c(-c3ccccc3)c(Cl)c2c1 (stereo not shown) [Example 124, (4-Chlorophenyl)(2,4-dichloro-3-phenylquinolin-6-yl)(pyrimidin-5-yl)methanol] | 0.22 µM | 100% | 0.92 µM | 0.12 µM
COC(c1ccncc1)(c1ccc2nc(N(C)C)c(-c3ccccc3)c(Cl)c2c1)c1cncn1C (stereo not shown) [Example 128, 4-Chloro-6-(methoxy(1-methyl-1H-imidazol-5-yl)(pyridin-4-yl)methyl)-N,N-dimethyl-3-phenylquinolin-2-amine•TFA] | 0.14 µM | 98% | 0.24 µM | 0.097 µM
COc1ccc(C(O)(c2ccc3nc(Cl)c(-c4ccccc4)c(Cl)c3c2)c2c(C)noc2C)cn1 (stereo not shown) [Example 129, (2,4-Dichloro-3-phenylquinolin-6-yl)(3,5-dimethylisoxazol-4-yl)(6-methoxypyridin-3-yl)methanol•TFA] | 0.16 µM | 100% | 0.08 µM | 0.0062 µM
COc1ccc(C(O)(c2ccc3nc(Cl)c(-c4ccccc4)c(Cl)c3c2)c2cc(C)no2)cn1 (stereo not shown) [Example 131, (2,4-Dichloro-3-phenylquinolin-6-yl)(6-methoxypyridin-3-yl)(3-methylisoxazol-5-yl)methanol•TFA] | 0.091 µM | 100% | 0.21 µM | 0.026 µM
Cc1cc(C(O)(c2ccc3nc(Cl)c(-c4ccccc4)c(Cl)c3c2)c2cncn2C)on1 (stereo not shown) [Example 132, (2,4-Dichloro-3-phenylquinolin-6-yl)(1-methyl-1H-imidazol-5-yl)(3-methylisoxazol-5-yl)methanol•TFA] | 0.048 µM | 103% | 0.13 µM | 0.016 µM
Cc1cc(C(O)(c2ccc(Cl)cc2)c2ccc3nc(N(C)C)c(-c4ccccc4)c(Cl)c3c2)on1 (stereo not shown) [Example 134, (4-Chloro-2-(dimethylamino)-3-phenylquinolin-6-yl)(4-chlorophenyl)(3-methylisoxazol-5-yl)methanol •TFA] | 0.52 µM | 96% | 1.1 µM | 0.29 µM
Cc1ncc(C(O)(c2ccc(Cl)cc2)c2ccc3nc(C#N)c(-c4ccccc4)c(Cl)c3c2)n1C (stereo not shown) [Example 139, 4-Chloro-6-((4-chlorophenyl)(1,2-dimethyl-1H-imidazol-5-yl)(hydroxy)methyl)-3-phenylquinoline-2-carbonitrile•TFA] | 0.31 µM | 102% | 0.35 µM | 0.061 µM
Cc1nc(C(O)(c2ccc3nc(Cl)c(-c4ccccc4)c(Cl)c3c2)c2cncn2C)cs1 (stereo not shown) [Example 140, (2,4-Dichloro-3-phenylquinolin-6-yl)(1-methyl-1H-imidazol-5-yl)(2-methylthiazol-4-yl)methanol] | 0.32 µM | 105% | 1.8 µM | 0.56 µM
Cn1c(C(O)(c2ccc(Cl)cc2)c2ccc3nc(Cl)c(-c4ccccc4)c(Cl)c3c2)cnc1Cl (stereo not shown) [Example 141, (2-Chloro-1-methyl-1H-imidazol-5-yl)(4-chlorophenyl)(2,4-dichloro-3-phenylquinolin-6-yl)methanol] | 0.21 µM | 99% | 1.2 µM | 0.62 µM
Cc1ccc(C(O)(c2ccc3nc(Cl)c(-c4ccccc4)c(Cl)c3c2)c2cncn2C)c(C)n1 (stereo not shown) [Example 142, (2,4-Dichloro-3-phenylquinolin-6-yl)(2,6-dimethylpyridin-3-yl)(1-methyl-1H-imidazol-5-yl)methanol] | 0.092 µM | 105% | 0.14 µM | 0.0076 µM
CSc1ncc(C(O)(c2ccc(Cl)cc2)c2ccc3nc(Cl)c(-c4ccccc4)c(Cl)c3c2)n1C (stereo not shown) [Example 145, (4-Chlorophenyl)(2,4-dichloro-3-phenylquinolin-6-yl)(1-methyl-2-(methylthio)-1H-imidazol-5-yl)methanol] | 0.25 µM | 93% | 1.2 µM | 2.1 µM
OC(c1ccc(Cl)cc1)(c1cccnc1)c1ccc2nc(-c3cncnc3)c(-c3ccccc3)c(Cl)c2c1 (stereo not shown) [Example 152, (4-Chloro-3-phenyl-2-(pyrimidin-5-yl)quinolin-6-yl)(4-chlorophenyl)(pyridin-3-yl)methanol] | 0.35 µM | 97% | 1.2 µM | 0.77 µM
Cn1cncc1C(O)(c1cccnc1)c1cc(F)c2nc(Cl)c(-c3ccccc3)c(Cl)c2c1 (stereo not shown) [Example 154, (2,4-Dichloro-8-fluoro-3-phenylquinolin-6-yl)(1-methyl-1H-imidazol-5-yl)(pyridin-3-yl)methanol•TFA] | 0.97 µM | 90% | 1.9 µM | 0.12 µM
Cc1ccc(C(O)(c2cc(C)c3nc(Cl)c(-c4ccccc4)c(Cl)c3c2)c2sccc2C)cn1 (stereo not shown) [Example 158, (2,4-Dichloro-8-methyl-3-phenylquinolin-6-yl)(6-methylpyridin-3-yl)(3-methylthiophen-2-yl)methanol] | 0.49 µM | 79% | > 6 µM | 2 µM

— patent publication US9309222B2, “Phenyl linked quinolinyl modulators of RORγt” (Janssen Pharmaceutica NV, priority 2012, dated 2016)
